Data: paper PMC12389646, “Design, Synthesis, and Bioactivity Assessment of Modified Vemurafenib Analog” (Pharmaceuticals, 2025)

How the values were obtained:
[1] = system: non-tumor HEK293T cell line; test: MTS cell viability assay, HEK293T; format: cell-based, human; details: for IC50: Homo sapiens, HEK-293T, 24 h treatment; for Selectivity Index: IC50 HEK293T divided by IC50 A375
Procedure: (§1) The human cutaneous melanoma cancer cell line A375, obtained from the American Type Culture Collection (ATCC, Rockville, MD, USA) and human embryonic kidney HEK293T cell line, obtained from Rio de Janeiro Cell Bank (BCRJ, Rio de Janeiro, Brazil), were cultured in Dulbecco’s Modified Eagle’s Medium (DMEM, Sigma-Aldrich, St. Louis, MO, USA) supplemented with L-glutamine (2 mM), 10% fetal bovine serum (FBS), 50 IU/mL penicillin and 50 μg/mL streptomycin (Sigma-Aldrich, St. Louis, MO, USA). Cells were maintained at 37 °C in a humidified atmosphere containing 5% CO2. Low cell passages (between 5 and 20) were used in the present study.
(§2) Cell viability was measured using an MTS method based on the conversion of the tetrazolium salt MTS (3-(4,5-dimethylthiazol-2-yl)-5-(3-carboxymethoxyphenyl)-2-(4-sulfophenyl)-2H-tetrazolium, Sigma-Aldrich, St. Louis, MO, USA) to a purple formazan in the presence of phenazine methosulfate. The enzymes responsible are NADPH-dependent dehydrogenases, which are active in viable cells. Briefly, cells (5 × 10^4/well) were seeded in 96-well plates in medium with 10% FBS; after 24 h, the complete medium was replaced with fresh medium containing 1% FBS and incubated for 24 h. Fresh stock solutions were prepared on the day of the experiment, and the cells were treated with different concentrations of vemurafenib and analogs (0.01, 0.1, 0.5, 1, 5, and 10 μM). Effects were evaluated after 24 h. Untreated cells were incubated as controls. Following drug exposure, MTS was added, and the absorbance was measured at 570 nm using a microplate reader (CLARIOStar Plus, BMG LabTech, Ortenberg, Germany).
(§3) All the values of in vitro experiments are presented as the mean ± standard error of three independent experiments. Statistical analyses were performed via a one-way ANOVA with Dunnett’s post hoc test, and statistical significance was defined as * p < 0.05. IC50 values were calculated by non-linear regression analysis using an Inhibitor vs. normalized response model curve fit, as implemented. Statistical analyses were performed with GraphPad Prism 10.1.2 (GraphPad Software Inc., San Diego, CA, USA).

MMP-9 = test: Gelatin zymography, MMP-9 in A375 conditioned media; format: cell-based, human; details: A375 cells, 1 μM and 5 μM, 24 h
Procedure: (§4) The potential effects of vemurafenib and its analogs on MMP-2 and MMP-9 activity in A375 cells were evaluated using gelatin zymography to detect gelatinolytic activity in conditioned media.
(§5) Gelatin zymography was carried out according to [30], using 7.5% SDS-polyacrylamide gels with 0.2% (w/v) gelatin. SDS-PAGE was run at 100 V at room temperature. Following electrophoresis, the gels were removed and placed in 2.5% (v/v) Triton X-100 to renature enzymes for 60 min. Then, gels were incubated in 50 mM Tris-HCl, 1 μM ZnCl2, 5 mM CaCl2, pH 7.5, overnight, to allow sufficient time for genatinolytic activity to occur. Following overnight incubation at 37 °C, gels were incubated in a staining solution (0.5% (v/v) Coomassie blue in a 40% methanol-10% acetic acid-water mixture) for 60 min. Following incubation, the staining solution, the gels were washed with the destaining solution (without coomassie blue) until the time to start to see the bands. Then imaged with a ChemiDoc^TM MP (BIO-RAD, Hercules, CA, USA) gel imaging system. Total protein and gelatinase activity were quantified using Image Lab™ Software 6.1 (BIO-RAD, Hercules, CA, USA).

[2] = system: human melanoma A375 cells; test: MTS cell viability assay, A375; format: cell-based; details: A-375, 24 h treatment, 0.01-10 μM tested
Procedure: as §1, §2, §3

MMP-2 = test: Gelatin zymography, MMP-2 in A375 conditioned media; format: cell-based, human; details: A375 cells, 1 μM and 5 μM, 24 h
Procedure: as §4, §5

A375 cells = test: TUNEL DNA fragmentation assay; format: cell-based, human; details: 5 μM, 24 h
Procedure: To detect DNA fragmentation in A375 cells, a modified apoptosis TUNEL method was used with the MEBSTAIN Apoptosis TUNEL Kit Direct (MBL International Corporation, Woburn, MA, USA) according to the manufacturer’s protocol. Briefly, cells were grown in 8-well culture slides (Corning, NY, USA) and incubated with the compounds (5 μM) for 24 h. Following treatments, the cells were washed with PBS and subsequently stained with TdT buffer, TdT solution, and Propidium Iodide, according to the manufacturer’s instructions. Experiments were conducted by fluorescent microscopy. The images were collected by an EVOS M5000 microscope (Thermo Fisher Scientific, Waltham, MA, USA).

Row | SMILES | IC50 [2] [µM] | cytotoxicity toward HEK293T cells ([1]; HEK293T cells, MTS) | IC50 ([1]; HEK293T cells, MTS) [µM] | Selectivity Index [1] | MMP-9 expression and activity (MMP-9) | MMP-2 expression and activity (MMP-2) | DNA fragmentation / TUNEL-positive apoptotic cells (A375 cells) | MMP-2 expression and activity (MMP-2; listed as RF-87A)
1 | O=C(N/N=C/c1c[nH]c2ncc(Br)cc12)c1cnccn1 [RF-94A (2c), (E)-N-((5-Bromo-1H-pyrrolo[2,3-b]pyridin-3-yl)methylene)pyrazine-2-carbohydrazide] | 53 | – | 25.8 | 0.49 | – | reduced | higher number of apoptotic cells | –
2 | O=C(N/N=C/c1c[nH]c2ncc(Br)cc12)c1cnc2ccccc2n1 [RF-94B (2d), (E)-N-((5-Bromo-1H-pyrrolo[2,3-b]pyridin-3-yl)methylene)quinoxaline-2-carbohydrazide] | 46.3 | – | 25.5 | 0.55 | – | – | – | –
3 | O=C(N/N=C/c1c[nH]c2ncc(Br)cc12)c1ccccn1 [RF-87A (2b), (E)-N-((5-Bromo-1H-pyrrolo[2,3-b]pyridin-3-yl)methylene)picolinohydrazide] | 47.2 | – | 142 | 3.01 | – | reduced | – | reduced MMP-2 activity only at the lower concentration (1 μM)

The next molecules have a lower IC50 [2] than those just listed; values first:

Row | IC50 [2] [µM] | SMILES | cytotoxicity toward HEK293T cells ([1]; HEK293T cells, MTS) | IC50 ([1]; HEK293T cells, MTS) [µM] | Selectivity Index [1] | MMP-9 expression and activity (MMP-9) | MMP-2 expression and activity (MMP-2) | DNA fragmentation / TUNEL-positive apoptotic cells (A375 cells) | MMP-2 expression and activity (MMP-2; listed as RF-87A)
4 | 7.68 | CCCS(=O)(=O)Nc1ccc(F)c(C(=O)c2c[nH]c3ncc(-c4ccc(Cl)cc4)cc23)c1F [Vemurafenib] | no cytotoxicity | > 1000 | >1000 | upregulated | – | – | –
5 | 6.99 | O=C(N/N=C/c1c[nH]c2ncc(Br)cc12)c1ccc2c(c1)CCCC2 [RF-86A (2a), (E)-N-((5-Bromo-1H-pyrrolo[2,3-b]pyridin-3-yl)methylene)-5,6,7,8-tetrahydronaphthalene-2-carbohydrazide] | – | 114 | 16.37 | – | reduced | – | –
